Like-named read-outs stand apart in the source and are kept apart here. One block for each compound: values may come before it.
What was measured:
[1] = molecular target: T1, human aromatase (Homo sapiens, UniProt P11511); test: Aromatase inhibition, fluorimetric assay kit (Aromatase-CYP19A Inhibitor Screening kit, BioVision); assay type: biochemical; conditions: for Aromatase inhibition (in words): screening at 1 µM
T1 construct: purchased BioVision, Milpitas, CA, USA
T1 sequence (P11511 1-503): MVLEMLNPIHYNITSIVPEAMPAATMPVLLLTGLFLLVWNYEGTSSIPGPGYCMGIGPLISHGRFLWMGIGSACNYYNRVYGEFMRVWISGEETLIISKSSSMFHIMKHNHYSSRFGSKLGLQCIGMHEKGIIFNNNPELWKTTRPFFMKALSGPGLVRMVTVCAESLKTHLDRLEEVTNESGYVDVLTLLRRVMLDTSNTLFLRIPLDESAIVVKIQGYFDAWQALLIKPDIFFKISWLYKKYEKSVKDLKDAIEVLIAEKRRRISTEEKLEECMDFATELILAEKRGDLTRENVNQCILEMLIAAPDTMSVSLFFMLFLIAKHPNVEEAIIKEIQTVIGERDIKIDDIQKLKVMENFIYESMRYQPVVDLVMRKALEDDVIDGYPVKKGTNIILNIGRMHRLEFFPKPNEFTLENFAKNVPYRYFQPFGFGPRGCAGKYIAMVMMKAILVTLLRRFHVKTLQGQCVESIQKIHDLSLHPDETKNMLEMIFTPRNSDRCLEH
Method: The activity was measured each minute for 60 min and the value obtained for each compound after 10 min was chosen to calculate the percentage of the aromatase inhibition.
The aromatase inhibitory activity was determined using a commercial fluorimetric assay kit (Aromatase-CYP19A Inhibitor Screening kit, BioVision, Milpitas, CA, USA), as reported elsewhere. The assay utilizes a fluorogenic aromatase substrate that is converted into a highly fluorescent metabolite detected in the visible range (Ex/Em 488/527 nm). […] During the incubation, the Aromatase Substrate/NADP+ mixture was prepared, and the reaction was started by adding 30 µL of this solution to each well (aside from the background control), reaching a final reaction volume of 100 µL/well. The fluorescence emission (527 nm) was measured immediately (within 1 min) by means of a fluorometer equipped with a 488 nm filter (GloMax®-Multi Detection System, Promega, Madison, WI, USA) and afterwards monitored for 60 min. […] The assay was performed in the same experimental conditions used for the initial screening of compounds. Dose–response curves were fitted with GraphPad Prism 5.0 (GraphPad Software, San Diego, CA, USA).

[2] = test system: MCF7 cells; test: Cytotoxicity test (lactate dehydrogenase release); assay type: cell-based, human; conditions: MCF7, 0–250 µM, 24 h
Method: To assess whether the decrease in metabolic activity is a consequence of cytotoxic occurrence in the presence of compounds 1b, 1c, and 1j, lactate dehydrogenase (LDH) released from MCF7 was measured in response to loading concentrations of 0–250 µM after a 24 h exposure. […] It is, therefore, plausible to assume that all tested compounds exert their anti-proliferative effect on MCF7 cells through cytotoxic induction and 1c is the most promising compound, being active already at lower doses.
MCF7 cells were seeded and stimulated as previously described for the MTT test. After the exposure time, cell supernatants were collected, centrifuged at 450× g for 4 min, and stored on ice. In order to quantify the cytotoxicity of loading concentrations of compounds 1b, 1c, and 1j (0–250 µM), the CytoTox 96® Non-Radioactive Cytotoxicity Assay (Promega Corporation, Madison, WI, USA) was performed as previously reported. The results were normalized on MTT absorbances and expressed as fold increases on the LDH released by cultures in the presence of vehicle (DMSO) set as 1.

[3] = test system: MCF7 breast cancer cell line; test: Cell metabolic activity / viability (MTT assay) on MCF7; assay type: cell-based, human; conditions: for IC50: Homo sapiens, MTT, tested 0 to 500 µM;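 for all read-outs here: MTT optical density read-out in human MCF7 cells, normalised to DMSO vehicle-treated cells as 100%, with IC50 derived from fitted concentration–response curves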
Method: Human skin fibroblasts (HFF-1, CVCL_3285) and human breast cancer MCF7 (HTB-22™, CVCL_0031) were purchased from ATCC and maintained in Dulbecco’s modified Eagle’s medium (DMEM) high glucose (EuroClone, Milan, Italy) supplemented with 10% of fetal bovine serum (FBS) and 1% of penicillin/streptomycin (Gibco—Thermo Fisher Scientific, MD, USA).
Cell metabolic activity of HFF-1 and MCF7 cells was assessed by MTT (3-(4,5-Dimethylthiazol-2-yl)-2,5-Diphenyltetrazolium Bromide) test (Sigma Aldrich, Milan, Italy). […] After the established exposure times, cells were incubated with MTT (0.5 mg/mL) and the optical density was measured as reported elsewhere [63]. Results were expressed as the percentage of cells in the presence of vehicle (DMSO) set as 100% and each experiment was performed in triplicate (n = 3). Concentration–response curves and IC50 were fitted and calculated with GraphPad Prism 5.0 (GraphPad Software, San Diego, CA, USA).

[4] = MCF7, 24 h, 24 h, read-out: MCF7 Cells IC50 24 h
[5] = MCF7, 72 h, 72 h, read-out: MCF7 Cells IC50 72 h

- Aromatase inhibition (in words) [1]: very low activity
- melting point: 127 to 130 °C
Structure (SMILES): O=S(=O)(Oc1ccc(/C=C/c2ccccc2)cc1)c1ccccc1 [1a, 4-[(E)-2-Phenylvinyl]phenylbenzenesulfonate]

- inhibition at 1 µM [1]: 97%
- IC50 ([1]; tested at concentrations from 0.01 to 100 μM, mean of triplicate determinations): 2.51 µM
- IC50 [3, 4]: 159 ± 9.9 µM
- IC50 [3, 5]: 240 ± 6.7 µM
- melting point: 152 to 155 °C
Structure (SMILES): O=[N+]([O-])c1cccc(S(=O)(=O)Oc2ccc(/C=C/c3ccccc3)cc2)c1 [1b, 4-[(E)-2-Phenylvinyl]phenyl 3-nitrobenzenesulfonate]
- LDH release, dose dependence (in words) [2]: raises only at the highest concentration administered (250 µM)
- Viability (% of control) - 24 h ([3]; MCF7, 10 µM, 24 h): 69.32 ± 14.99 % of control
- Viability (% of control) - 72 h ([3]; MCF7, 10 µM, 72 h): 98.33 ± 5.24 % of control
- Viability (% of control) - 24 h ([3]; MCF7, 25 µM, 24 h): 79.12 ± 9.66 % of control
- Viability (% of control) - 72 h ([3]; MCF7, 25 µM, 72 h): 99.99 ± 9.30 % of control
- Viability (% of control) - 24 h ([3]; MCF7, 50 µM, 24 h): 80.69 ± 4.08 % of control
- Viability (% of control) - 72 h ([3]; MCF7, 50 µM, 72 h): 93.39 ± 5.39 % of control
- Viability (% of control) - 24 h ([3]; MCF7, 100 µM, 24 h): 73.93 ± 1.87 % of control
- Viability (% of control) - 72 h ([3]; MCF7, 100 µM, 72 h): 77.31 ± 7.02 % of control
- Viability (% of control) - 24 h ([3]; MCF7, 250 µM, 24 h): 45.57 ± 3.42 % of control
- Viability (% of control) - 72 h ([3]; MCF7, 250 µM, 72 h): 57.01 ± 1.01 % of control
- Viability (% of control) - 24 h ([3]; MCF7, 500 µM, 24 h): 35.83 ± 2.22 % of control
- Viability (% of control) - 72 h ([3]; MCF7, 500 µM, 72 h): 36.11 ± 0.35 % of control

- inhibition at 1 µM [1]: 56.1%
Structure (SMILES): N#Cc1ccc(S(=O)(=O)Oc2ccc(/C=C/c3ccccc3)cc2)cc1 [1e, 4-[(E)-2-Phenylvinyl]phenyl 4-cyanobenzenesulfonate]

- melting point: 141 to 142 °C
Structure (SMILES): COc1ccc(S(=O)(=O)Oc2ccc(/C=C/c3ccccc3)cc2)c(OC)c1 [1g, 4-[(E)-2-Phenylvinyl]phenyl 2,4-dimethoxybenzenesulfonate]

- inhibition at 1 µM [1]: 100%
- melting point: 112 to 114 °C
Structure (SMILES): CCS(=O)(=O)Oc1ccc(/C=C/c2ccccc2)cc1 [1i, 4-[(E)-2-Phenylvinyl]phenyl ethanesulfonate]

- inhibition at 1 µM [1]: 60.3%
- melting point: 160 to 162 °C
Structure (SMILES): O=S(=O)(Oc1ccc(/C=C/c2ccccc2)cc1)c1ccc(Cl)s1 [1k, 4-[(E)-2-Phenylvinyl]phenyl 5-chlorothiophene-2-sulfonate]

- inhibition at 1 µM [1]: 47.8%
- melting point: 160 to 162 °C
Structure (SMILES): O=S(=O)(Nc1ccc(/C=C/c2ccccc2)cc1)c1ccccc1 [2a, N-{4-[(E)-2-Phenylvinyl]phenyl}benzenesulfonamide]

- inhibition at 1 µM [1]: 67.3%
- melting point: 210 to 211 °C
Structure (SMILES): O=[N+]([O-])c1cccc(S(=O)(=O)Nc2ccc(/C=C/c3ccccc3)cc2)c1 [2b, 3-Nitro-N-{4-[(E)-2-phenylvinyl]phenyl}benzenesulfonamide]

- inhibition at 1 µM [1]: 44.8%
- melting point: 246 to 247 °C
Structure (SMILES): Cc1ccc(S(=O)(=O)Nc2ccc(/C=C/c3ccccc3)cc2)cc1[N+](=O)[O-] [2c, 4-Methyl-3-nitro-N-{4-[(E)-2-phenylvinyl]phenyl}benzenesulfonamide]

- melting point: 182 to 183 °C
Structure (SMILES): Cc1ccc(S(=O)(=O)Nc2ccc(/C=C/c3ccccc3)cc2)cc1 [2d, 4-Methyl-N-{4-[(E)-2-phenylvinyl]phenyl}benzenesulfonamide]

- melting point: 238 to 239 °C
Structure (SMILES): N#Cc1ccc(S(=O)(=O)Nc2ccc(/C=C/c3ccccc3)cc2)cc1 [2e, 4-Cyano-N-{4-[(E)-2-phenylvinyl]phenyl}benzenesulfonamide]

- melting point: 230 to 231 °C
Structure (SMILES): CC(=O)Nc1ccc(S(=O)(=O)Nc2ccc(/C=C/c3ccccc3)cc2)cc1 [2f, N-{4-[({4-[(E)-2-Phenylvinyl]phenyl}amino)sulfonyl]phenyl}acetamide]

- melting point: 213 to 215 °C
Structure (SMILES): COc1ccc(S(=O)(=O)Nc2ccc(/C=C/c3ccccc3)cc2)c(OC)c1 [2g, 2,4-Dimethoxy-N-{4-[(E)-2-phenylvinyl]phenyl}benzenesulfonamide]

- melting point: 250 to 251 °C
Structure (SMILES): CS(=O)(=O)Nc1ccc(/C=C/c2ccccc2)cc1 [2h, N-{4-[(E)-2-Phenylvinyl]phenyl}methanesulfonamide]

- melting point: 230 to 231 °C
Structure (SMILES): CCS(=O)(=O)Nc1ccc(/C=C/c2ccccc2)cc1 [2i, N-{4-[(E)-2-Phenylvinyl]phenyl}ethanesulfonamide]

- Aromatase inhibition (in words) [1]: inactive
- melting point: 200 to 202 °C
Structure (SMILES): O=S(=O)(Nc1ccc(/C=C/c2ccccc2)cc1)c1ccc(Cl)s1 [2k, 5-Chloro-N-{4-[(E)-2-phenylvinyl]phenyl}thiophene-2-sulfonamide]

- IC50 [3, 4]: > 250 µM
- IC50 [3, 5]: 83 ± 3.8 µM
Structure (SMILES): Oc1ccc(/C=C/c2cc(O)cc(O)c2)cc1 [RSV, trans-3,4′,5-trihydroxystilbene, reference compound]
- Viability (% of control) - 24 h ([3]; MCF7, 10 µM, 24 h): 80.27 ± 3.18 % of control
- Viability (% of control) - 72 h ([3]; MCF7, 10 µM, 72 h): 91.92 ± 5.44 % of control
- Viability (% of control) - 24 h ([3]; MCF7, 25 µM, 24 h): 84.94 ± 6.59 % of control
- Viability (% of control) - 72 h ([3]; MCF7, 25 µM, 72 h): 73.93 ± 9.52 % of control
- Viability (% of control) - 24 h ([3]; MCF7, 50 µM, 24 h): 87.44 ± 1.93 % of control
- Metabolically active cells ([3]; MCF7, 50 µM, 24 h, DMSO alone = 100%): slightly active at this concentration
- Viability (% of control) - 72 h ([3]; MCF7, 50 µM, 72 h): 66.54 ± 5.77 % of control
- Viability (% of control) - 24 h ([3]; MCF7, 100 µM, 24 h): 78.29 ± 4.03 % of control
- Viability (% of control) - 72 h ([3]; MCF7, 100 µM, 72 h): 47.75 ± 2.67 % of control
- Viability (% of control) - 24 h ([3]; MCF7, 250 µM, 24 h): 60.29 ± 0.93 % of control
- Viability (% of control) - 72 h ([3]; MCF7, 250 µM, 72 h): 38.05 ± 8.70 % of control
- Viability (% of control) - 24 h ([3]; MCF7, 500 µM, 24 h): 34.30 ± 5.01 % of control
- Viability (% of control) - 72 h ([3]; MCF7, 500 µM, 72 h): 15.33 ± 4.88 % of control

— paper PMC8537897, “Design, Synthesis and Biological Evaluation of Aromatase Inhibitors Based on Sulfonates and Sulfonamides of Resveratrol” (Pharmaceuticals, 2021)
